Source: patent US20200165574A1, “METHODS OF PREPARING NAÏVE HUMAN PLURIPOTENT STEM CELLS” (REGENTS OF THE UNIVERSITY OF MINNESOTA, priority 2017, published 2020)
“Also recorded” adds a separate entry of the source.

B1: full-length recombinant vitronectin: xeno-free recombinant full-length vitronectin (PeproTech), coated on plate at 5 μg/mL as culture substrate (protein, UniProt P04004 1-478, looked up)
chain: MAPLRPLLILALLAWVALADQESCKGRCTEGFNVDKKCQCDELCSYYQSCCTDYTAECKPQVTRGDVFTMPEDEYTVYDDGEEKNNATVHEQVGGPSLTSDLQAQSKGNPEQTPVLKPEEEAPAPEVGASKPEGIDSRPETLHPGRPQPPAEEELCSGKPFDAFTDLKNGSLFAFRGQYCYELDEKAVRPGYPKLIRDVWGIEGPIDAAFTRINCQGKTYLFKGSQYWRFEDGVLDPDYPRNISDGFDGIPDNVDAALALPAHSYSGRERVYFFKGKQYWEYQFQHQPSQEECEGSSLSAVFEHFAMMQRDSWEDIFELLFWGRTSAGTRQPQFISRDWHGVPGQVDAAMAGRIYISGMAPRPSLAKKQRFRHRNRKGYRSQRGHSRGRNQNSRRPSRATWLSLFSSEESNLGANNYDDYRMDWLVPATCEPIQSVFFFSGDKYYRVNLRTRRVDTVDPPYPRSIAQYWLGCPAPGHL
modifications: full-length
notes: xeno-free recombinant full-length vitronectin (PeproTech), coated on plate at 5 μg/mL as culture substrate

What was measured:
Assay type in all cases: cell-based, human
primed HPSCs [1] = experiment: ERK inhibitor assay, primed PSCs; details: 10 nM ERK inhibitor in media, imaged each day for 4 days
Experimental: (§1) One day after passaging, 10 nM ERK inhibitor PD0325901 (PZ0162, Sigma-Aldrich, St. Louis, Mo.) was added to naïve or primed PSCs. Cells were imaged each day for 4 days to follow morphology changes.

naïve HPSCs [2] = experiment: ERK inhibitor assay, naïve PSCs; details: naïve HPSCs in RSet media, additional 10 nM ERK inhibitor, imaged each day for 4 days; listed as PD325901
Experimental: as §1

naïve HPSCs [3] = experiment: Karyotype of transitioned naïve HPSCs (high-resolution G banding); details: after 10 passages in RSet media
Text: Naïve HPSCs were examined by high-resolution G banding after 10 passages in RSet medium.

primed HPSCs [4] = experiment: Feeder-free transition of primed HPSCs to the naïve state on a culture substrate; details: RSet media, substrate-coated plate
Experimental: Primed induced pluripotent stem cell (PCBC16iPS) (Ye et al. (2013) PLoS ONE 8 (1):e53764) to be used for naïve cell derivation were cultured for at least two passages in mTeSR1 medium (STEMCELL Technologies, Vancouver, Canada) in either normoxic (20% O2, 5% CO2) or hypoxic conditions (5% O2, 5% CO2). Primed iPSCs were treated with Gentle Cell Dissociation Reagent (STEMCELL Technologies, Vancouver, Canada) for 5 minutes at room temperature and removed from the plate with a 5 milliliter (mL) pipette in 1 mL TeSR1 medium. Aggregates of 250 primed iPSCs were plated in 1 mL mTeSR1 (STEMCELL Technologies, Vancouver, Canada) per well of a 12-well tissue culture treated plate (Corning, Inc., Corning, N.Y.) coated with 5 micrograms per milliliter (μg/mL) full-length vitronectin (PeproTech, Rocky Hill, N.J.) (Parr et al. (2016) Methods in Molecular Biology 1357:221-9). The plate had been previously coated with vitronectin at 37° C. for 2 hours per manufacturer's protocol. The plated cells were incubated overnight at 37° C., to allow adherence to the vitronectin coated plate. The cells may be incubated in either normoxic or hypoxic conditions, and typically were incubated under the same conditions used to maintain the primed HPSC culture. […] Cells were monitored for compaction and defined colony edges. […]

Molecule | differentiation / maintenance of pluripotency (morphology changes) (primed HPSCs [1]) | differentiation / maintenance of undifferentiated state (morphology changes) (naïve HPSCs [2]) | karyotype of naïve HPSCs derived on the substrate (naïve HPSCs [3]) | support of transition from primed to naïve pluripotent state (primed HPSCs [4])
O=C(NOC[C@H](O)CO)c1ccc(F)c(F)c1Nc1ccc(I)cc1F [PD0325901] | induces differentiation; also recorded: displayed immediate differentiation | maintain their undifferentiated state |  | 
B1 |  |  | normal karyotype | supports the successful transition
